# Columns and labels:
# parainfluenza virus = assay type: in vivo, Kunming mice; settings: mouse, in vivo, 13 mg/kg/day
# [1] = test system: carrageenan-induced paw swelling; test: Carrageenan-induced paw swelling in rats; assay type: in vivo, Wistar rats; settings: 10.0 mg/kg, sublingual intravenous injection
# Experimental: Each group was administered by sublingual intravenous injection. Before the study, the normal volume of the right hind limb was measured by the capillary magnification method. To avoid errors, the measurement position should be fixed and performed by one person before and after administration. The average of the two measurements was taken as the normal volume of the right hind limb of the rats prior to administration. […] The inter-group t-test was performed by the difference percentage (swelling rate) of the plantar volume before and after the inflammation induction, and the differences among the groups were compared.
# influenza virus [2] = assay type: in vivo, Kunming mice; settings: mice infected with influenza virus; 13.0 mg/kg/day by gavage, 5 days
# [3] = test system: mouse splenic lymphocytes; test: ConA-induced mouse splenic lymphocyte transformation test; assay type: in vivo, Kunming mice; settings: 144 mg/kg; gavage once daily for 30 days; mice; ABSa-ABSb at 570 nm
# Experimental: One hundred and fifty-two healthy male mice were subjected to acclimation for 4 days before they were randomly divided into 19 groups: the negative control group, positive control group, forsythin group, 20(R)-ginsenoside Rg3 group, high, middle and low dose groups of panax ginseng-forsythia suspensa composition. […] The drugs were given by gavage, once daily for 30 days, and the negative control group was given the same volume of water. At 1 h after the last dose, the spleens of animals of each group were aseptically excised to prepare splenocyte suspension. After diluting the splenocyte suspension to a concentration of 3×10^6 cells/mL, the splenocyte suspension was divided into 2 aliquots.Each of the aliquot was transferred into two 24-well culture plates at a volume of 1 mL/well followed by addition of 75 µL of ConA solution (a) was added to one well, and the other well was used as control (b). The wells were cultured at 37° C. for 72 h. Then, thiazolyl blue (MTT) was added 4 h before the end of the culture. After incubation, acidic isopropanol was added, and the absorbance (ABS) of each solution was measured at 570 nm after it was mixed well. The proliferativity was calculated using the formula: proliferativity = ABSa-ABSb. Each dose group of the test sample was compared with the negative control group.
# [4] = test system: epithelial cells of plantar sweat glands of rats; test: Sweat secretion of rat paw (histomorphology observation method); assay type: in vivo, Wistar rats; settings: 1 h after gavage, dose not given
# Description: After sweat glands activation in rats, besides the increase of sweat secretion, the morphology of the epithelial cells of the sweat glands changes accordingly. Under the optical microscope, the increase and enlargement of vacuoles in the epithelial cells of the sweat glands are observed. Under an electron microscope, the enlarged vacuoles appear to be due to swelling and rupture of mitochondria, enlargement of fusion and secretory vesicles in the epithelial cells of sweat glands. The secretory activity of sweat glands could be understood by observing the histomorphology of the epithelial cells of plantar sweat glands of rats. Three hundred Wistar rats, half male and half female, weighing 120-160 g. were taken in the study. […] Except for the pilocarpine solution given by subcutaneous injection, other groups were administered by gavage. One hour after the control group was given 0.5% carboxymethyl cellulose, 30 min after the positive drug group was given pilocarpine, and 1 h after the administration of forsythin, ginsenoside Rg3 and the panax ginseng-forsythia suspensa composition, the right hind limb was immediately cut off at the level of the ankle joint. […] Observations were made under an optical microscope for changes in the epithelial cells of the plantar sweat glands of rats in each group, mainly the incidence of vacuoles. The statistical processing was performed by X^2 test, and differences among the groups were compared. The above study was repeated for 3 times.
# Vero cells = test: Cytotoxicity test of drugs on Vero cells (MTT); settings: 72 h
# [5] = test system: fever induced by beer yeast; test: Fever induced by beer yeast in rats; assay type: in vivo, Wistar rats; settings: 10 mg/kg
# Coxsackievirus B3 (CVB3) = test: Effect of drugs on viral cytopathic effect, effective antiviral rate (ER%); assay type: cell-based; settings: Vero cells, 100TCID50, drug at maximum non-toxic concentration, 72 h, MTT
# influenza virus [6] = assay type: in vivo, Kunming mice; settings: lung suspension, mice infected with influenza virus; 13.0 mg/kg/day by gavage, 5 days
# Adenovirus (AdV) = test: Effect of drugs on viral cytopathic effect, effective antiviral rate (ER%); assay type: cell-based; settings: Vero cells, 100TCID50, drug at maximum non-toxic concentration, 72 h, MTT
# enterovirus 71 (EV71) = test: as above; assay type: cell-based; settings: Vero cells, 100TCID50, drug at maximum non-toxic concentration, 72 h, MTT
# [7] = test system: sweat secretion of rat paw; test: Sweat secretion of rat paw (staining method); assay type: in vivo, Wistar rats; settings: of 10 rats; dose not printed, gavage
# Description: There are sweat glands on the plantar skin of rats, so the changes in sweat secretion can be observed by the purple reaction between the iodine-starch mixture and the sweat. Five hundred Wistar rats, half male and half female, weighing 120-150 g, were taken in the study. […] The rats were placed in a homemade rat-fixing bag to expose both hind limbs. The dirt on the right paw was gently scrubbed with a cotton swab dipped in absolute ethanol. Except for the pilocarpine solution, which was given by subcutaneous injection, other groups were administered by gavage. One hour after administration (30 min after administration in the pilocarpine group), the sweat secreted from the right paw of rats in each group was gently cleaned with a dry cotton swab before the study and during struggling. The right paw was coated with Wotan-[…] reagent A solution (dissolve 2 g of iodine in 100 mL of absolute ethanol) and then coated with Wotan-[…] reagent B solution (mix 50 g of soluble starch and 100 mL of Ricinus conununis oil well) after reagent A was fully absorbed. […] At the end of the test, a rank-sum test was used to analyze the differences among the groups.
smiles,measurement,setting,value
COc1ccc([C@H]2OCC3C2CO[C@H]3c2ccc(O[C@@H]3OC(CO)[C@@H](O)[C@H](O)C3O)c(OC)c2)cc1OC (stereo partly shown) [Forsythin],Hemagglutinin titer (InX),parainfluenza virus,23.17±1.059
same,Inhibitory rate (%) of hemagglutination titer,parainfluenza virus,30.01%
same,Swelling rate (%) 15 min,[1]; 15 min after inflammation induction,12.9±8.41%
same,Swelling rate (%) 30 min,[1]; 30 min after inflammation induction,19.9±9.55%
same,Swelling rate (%) 60 min,[1]; 60 min after inflammation induction,21.8±11.8 %
same,Swelling rate (%) 120 min,[1]; 120 min after inflammation induction,28.9±14.0^∗ %
same,Swelling rate (%) 180 min,[1]; 180 min after inflammation induction,30.8±15.4^∗ %
same,Swelling rate (%) 240 min,[1]; 240 min after inflammation induction,29.9±11.1^∗ %
same,Swelling rate (%) 300 min,[1]; 300 min after inflammation induction,33.5±10.0^∗ %
same,Swelling rate (%) 360 min,[1]; 360 min after inflammation induction,32.2±11.9^∗ %
same,Lung index (x̅ ±S),influenza virus [2],1.280±0.040
same,Lung index Inhibitory rate (%),influenza virus [2],14.00%
same,Proliferation ability (×10^-2),[3],28.66±12.63 ×10^-2
same,Number of vacuolar sweat glands (number),[4],86 number
same,Vacuolation rate (%),[4],22.15^∗∗ %
same,Half toxic concentration (TC50),Vero cells,550 µg/mL
same,Maximum non-toxic concentration (TC0),Vero cells,0.0066 g/L
same,"Body temperature change (%) (antipyretic percentage), time post-dose 1 h",[5]; 1 h post-dose,-0.60±0.39%
same,"Body temperature, time post-dose 1 h",[5]; 1 h post-dose,39.13±0.52 °C
same,"Body temperature change (%) (antipyretic percentage), time post-dose 2 h",[5]; 2 h post-dose,-0.92±0.93^∗∗ %
same,"Body temperature, time post-dose 2 h",[5]; 2 h post-dose,38.77±0.42 °C
same,"Body temperature change (%) (antipyretic percentage), time post-dose 3 h",[5]; 3 h post-dose,-1.29±1.18^∗ %
same,"Body temperature, time post-dose 3 h",[5]; 3 h post-dose,38.63±0.40 °C
same,"Body temperature change (%) (antipyretic percentage), time post-dose 4 h",[5]; 4 h post-dose,-1.70±1.23^∗ %
same,"Body temperature, time post-dose 4 h",[5]; 4 h post-dose,38.46±0.31 °C
same,Effective Antiviral Rates (ER%) CVB3,Coxsackievirus B3 (CVB3),75.27^∗∗ %
same,Hemagglutinin titer (InX),influenza virus [6],22.06±1.120
same,Inhibitory rate (%) of hemagglutination titer,influenza virus [6],31.90%
same,Effective Antiviral Rates (ER%) ADV,Adenovirus (AdV),75.14^∗∗ %
same,Effective Antiviral Rates (ER%) EV71,enterovirus 71 (EV71),84.85^∗∗ %
same,Number of animals with sweat spots of each grade at 1 min after application of solution B: grade +,[7],2 animals
same,Number of animals with sweat spots of each grade at 1 min after application of solution B: grade ++,[7],2 animals
same,Number of animals with sweat spots of each grade at 1 min after application of solution B: grade +++,[7],2 animals
same,Number of animals with sweat spots of each grade at 1 min after application of solution B: grade +++ (fifth grade column),[7],4 animals
same,Number of animals with sweat spots of each grade at 1 min after application of solution B: grade -,[7],0 animals
same,Number of animals with sweat spots of each grade at 5 min after application of solution B: grade +,[7],1 animals
same,Number of animals with sweat spots of each grade at 5 min after application of solution B: grade ++,[7],2 animals
same,Number of animals with sweat spots of each grade at 5 min after application of solution B: grade +++,[7],2 animals
same,Number of animals with sweat spots of each grade at 5 min after application of solution B: grade +++ (fifth grade column),[7],5 animals
same,Number of animals with sweat spots of each grade at 5 min after application of solution B: grade -,[7],0 animals
